Reference: patent publication US20230201226A1, “COMBINATION THERAPY FOR REDUCING DRUG-INDUCED NEPHROTOXICITY, DYSLIPIDEMIA AND HYPERGLYCEMIA” (Yissum Research Development Company of the Hebrew …, priority 2020, published 2023)

Tests used:
[1] = test system: Human primary proximal tubule cells (hPTC); assay: Phospholipidosis (Red Phospholipidosis reagent) and neutral lipid (Green LipidTox) staining of kidney cells exposed to kidney damaging agents; type: cell-based; details: 48 hours
Protocol: Testing the effect of combination therapy on human kidney cells exposed to kidney damaging agents—Human primary proximal tubule cells (hPTC) were seeded at density of 10,000 cells/cm^2 in a black 96-well plate. When the cells reach 80% density, treatments were induced. […] The drugs were induced either alone (controls) or in combination with Empagliflozin (SGLT2i) at 5 μM or Fenofibrate at 20 μM, themselves in combination with Quercetin at 20 μM. All different solutions included 1× Red Phospholipidosis staining reagent as well. hPTC were incubated with the different combinations for 48 hours at 37° C. 5% CO2 […]. After 48 hours, the media were removed and replaced with Green LipidTox stain to stain for neutral lipids in green (diluted at 1:200 in hPTC medium). After 45 minutes of incubation at 37° C., the plate was mounted onto a Zeiss epifluorescent microscope for quantification. Each condition was tested in three biological replicates, and light settings were the same for all the images. Images were analyzed with ImageJ. […]

[2] = test system: human proximal tubule cells (hPTCs); details: 48 hours

Molecule	prevention of Cyclosporine A, Cisplatin and Gentamicin induced lipotoxicity by co-administration ([1]; Cyclosporine A 1 μM, Cisplatin 1 μM or Gentamicin 1 mM, Empagliflozin 5 μM or Fenofibrate 20 μM)	survival of human proximal tubule cells (hPTCs) ([2]; co-administration with 1 mM gentamicin, Empagliflozin 5 μM or Fenofibrate 20 μM)	induced lipotoxicity of the kidneys (phospholipids and neutral lipids) ([1]; kidney damaging agent alone: Cyclosporine A 1 μM, Cisplatin 1 μM, Gentamicin 1 mM)	cell death ([2]; hPTC, 1 mM gentamicin by itself)
OC[C@H]1O[C@@H](c2ccc(Cl)c(Cc3ccc(O[C@H]4CCOC4)cc3)c2)[C@H](O)[C@@H](O)[C@@H]1O [empagliflozin, Empagliflozin]	prevented	dramatically increased the survival		
Gentamicin			induced lipotoxicity	induced massive cell death
